Assay results published in article PMC10318456, “Selective inhibitors of the PSEN1–gamma-secretase complex” (The Journal of Biological Chemistry, 2023).
“And” between values parts separate entries of the source, which are not always exact repeats. Equal values may be shown once.

How the values were obtained:
Assay type in all cases: cell-based
[1] = molecular target: T1, PSEN1 I229A–APH1A γ-secretase complex (Homo sapiens, UniProt P49768, I229A); assay: Aβ40 secretion, MEF cell pool restored with PSEN1 I229A–APH1A; conditions: decimal comma; for IC50: PSEN1 I229A (TM5)–APH1A cell pool, N = 3 to 4, mean (95% CI); for IC50 fold change to WT: PSEN1 I229A–APH1A cell pool
T1 construct: expressed in transfected cells; host or cells: Psen1/2 double KO/Aph1ABC triple KO MEFs, pools without clonal selection
Experimental: (§1) We turned to experimental site–directed mutagenesis and selected a series of amino acids (Fig. 3) in the entrance channel for mutation to alanine. […] More importantly, they were all enzymatically active as shown by the secretion of Aβ40 in the supernatants of the cell cultures (Fig. 3B).
(§2) Conditional Psen1/2 double KO mice were crossed with conditional Aph1ABC triple KO mice ([29], [52], [58], [59]). At embryonic day 7.5, embryos were dissected and dissociated, and cells were plated in the presence of Dulbecco’s modified Eagle’s medium (DMEM)/F12 50% fetal calf serum (FCS) (Invitrogen). Primary MEFs were immortalized by transduction with LargeT antigen. Psen1/2 double KO/Aph1ABC triple KO MEFs were generated by transduction with a Cre-GFP–expressing adenoviral vector, and GFP-positive MEFs were sorted by fluorescence-activated cell sorting analysis. Psen1/2 Aph1ABC-deficient MEFs were maintained in DMEM/f12 10% FCS. To rescue γ-secretase expression, Psen1/2 double KO/Aph1ABC triple KO MEFs were transduced using Murine Stem Cell Virus retroviral vector system (pMSCV) viral vectors (Clontech) containing the human coding sequences of the different PSEN and APH1 homologs and the zeocin selection marker. An Internal Ribosome Entry Site sequence was cloned between the coding sequences for PSEN and APH1 to ensure co-expression of both proteins. Stable transfected cell lines were selected using 500-μg/ml zeocin (Invitrogen). Four different combinations were made: PSEN1 and APH1AL, PSEN1 and APH1B, PSEN2 and APH1AL, and PSEN2 and APH1B. These cell lines were transduced with pMSCV viral vectors (Clontech) expressing APP-C99-GFP-puromycin. After puromycin selection (5 μg/ml), GFP-positive cells were selected through FACS sorting. For the alanine mutagenesis experiment, pMSCV PSEN1-APH1A viral vectors were generated by using a long PCR-based QuikChange strategy (Stratagene). Stable cell lines without clonal selection were generated for each mutant as described above. All cell lines were regularly tested for the absence of mycoplasma and used for maximum 20 passages in culture.
(§3) The number of plated cells and incubation times were determined in respect to linearity of Aβ peptide secretion, the dynamic range of Aβ peptide quantification in the medium, and sensitivity to dimethylsulfoxide (DMSO). […] MEF cells were plated in DMEM F12 supplemented with 10% FCS at 10,000 cells per well in 96-well clear bottom plates in the late afternoon and cultured for 16 h at 37 °C, 5% CO2. […] The cell viability was assessed using the CellTiter-Glo Luminescent assay (Promega) that measures ATP production. […] We however measured five compounds at the Leuven site and noticed that absolute IC50 values were different (Fig. S2). […]

[2] = molecular target: T2, PSEN1 S169A–APH1A γ-secretase complex (Homo sapiens, UniProt P49768, S169A); assay: Aβ40 secretion, MEF cell pool restored with PSEN1 S169A–APH1A; conditions: PSEN1 S169A (TM3)–APH1A cell pool; N = 3 to 4; mean (95% CI); decimal comma
T2 construct: expressed in transfected cells; host or cells: Psen1/2 double KO/Aph1ABC triple KO MEFs, pools without clonal selection
Experimental: as §1
Conditional Psen1/2 double KO mice were crossed with conditional Aph1ABC triple KO mice ([29], [52], [58], [59]). At embryonic day 7.5, embryos were dissected and dissociated, and cells were plated in the presence of Dulbecco’s modified Eagle’s medium (DMEM)/F12 50% fetal calf serum (FCS) (Invitrogen). Primary MEFs were immortalized by transduction with LargeT antigen. Psen1/2 double KO/Aph1ABC triple KO MEFs were generated by transduction with a Cre-GFP–expressing adenoviral vector, and GFP-positive MEFs were sorted by fluorescence-activated cell sorting analysis. Psen1/2 Aph1ABC-deficient MEFs were maintained in DMEM/f12 10% FCS. […]
(§4) The number of plated cells and incubation times were determined in respect to linearity of Aβ peptide secretion, the dynamic range of Aβ peptide quantification in the medium, and sensitivity to dimethylsulfoxide (DMSO). […] The cell viability was assessed using the CellTiter-Glo Luminescent assay (Promega) that measures ATP production. […] We however measured five compounds at the Leuven site and noticed that absolute IC50 values were different (Fig. S2). […]

[3] = molecular target: T3, PSEN1 WT–APH1A γ-secretase complex (Homo sapiens, UniProt P49768); assay: Aβ40 secretion, MEF cell pool restored with PSEN1 WT–APH1A; conditions: decimal comma; for IC50 fold change to WT: PSEN1 WT–APH1A cell pool (reference); for IC50: PSEN1 WT–APH1A cell pool, N = 3 to 4, mean (95% CI)
T3 construct: expressed in transfected cells; host or cells: Psen1/2 double KO/Aph1ABC triple KO MEFs
Experimental: as §1, §2
(§5) The number of plated cells and incubation times were determined in respect to linearity of Aβ peptide secretion, the dynamic range of Aβ peptide quantification in the medium, and sensitivity to dimethylsulfoxide (DMSO). […] MEF cells were plated in DMEM F12 supplemented with 10% FCS at 10,000 cells per well in 96-well clear bottom plates in the late afternoon and cultured for 16 h at 37 °C, 5% CO2. In the morning of the second day, the medium was replaced with 60 μl of DMEM/F12 supplemented with 2% FCS, and GSI or DMSO (controls) were added. Compounds were tested in serial dilutions with concentrations ranging from […] to 0.1 nM with 3-fold changes. The final concentration of DMSO in all wells was 0.2%. Plates were put in the incubator again at 37 °C, 5% CO2. After 8 h, the culture media were collected, and 30 μl was used to measure Aβ40 peptides. The cell viability was assessed using the CellTiter-Glo Luminescent assay (Promega) that measures ATP production. All screens were performed at one site, and reported IC50 values throughout the manuscript are from this site (Beerse) unless otherwise indicated. We however measured five compounds at the Leuven site and noticed that absolute IC50 values were different (Fig. S2). The main goal of the current work is to explore the basis for inhibitor selectivity for different γ-secretases, and selectivity was consistent in the assays at the two sites (Fig. S2).
(§6) Standard 96-well SECTOR plates (MSD) were coated with 1.5 μg/ml anti-Aβ JRFcAβ40/28 capture antibody in a final volume of 50 μl of PBS 0.05% Tween 20. After overnight incubation at 4 °C, the plates were five times rinsed with PBS 0.05% Tween 20 and blocked with 150 μl per well of casein buffer (PBS with 1% casein, pH 7.4) for 4 h at room temperature. Standards (synthetic human Aβ 1–40) were diluted in culture media. […]

[4] = molecular target: T4, PSEN1 F388A–APH1A γ-secretase complex (Homo sapiens, UniProt P49768, F388A); assay: Aβ40 secretion, MEF cell pool restored with PSEN1 F388A–APH1A; conditions: decimal comma; for IC50: PSEN1 F388A (TM7)–APH1A cell pool, N = 3 to 4, mean (95% CI)
T4 construct: expressed in transfected cells; host or cells: Psen1/2 double KO/Aph1ABC triple KO MEFs, pools without clonal selection
Experimental: as §1
as §2, with “After puromycin selection (5 μg/ml), GFP-positive cells were selected through FACS sorting. For the alanine mutagenesis experiment, pMSCV PSEN1-APH1A viral vectors were generated by using a long PCR-based QuikChange strategy (Stratagene). Stable cell lines without clonal selection were generated for each mutant as described above. All cell lines were regularly tested for the absence of mycoplasma and used for maximum 20 passages in culture.” left out
as §4

[5] = molecular target: T5, PSEN1 L172A–APH1A γ-secretase complex (Homo sapiens, UniProt P49768, L172A); assay: Aβ40 secretion, MEF cell pool restored with PSEN1 L172A–APH1A; conditions: for increase in binding affinity by alanine substitution of L172: PSEN1 L172A versus WT
T5 construct: expressed in transfected cells; host or cells: Psen1/2 double KO/Aph1ABC triple KO MEFs, pools without clonal selection
Experimental: as §1, §2, §5, §6

[6] = molecular target: T6, PSEN1 L173A–APH1A γ-secretase complex (Homo sapiens, UniProt P49768, L173A); assay: Aβ40 secretion, MEF cell pool restored with PSEN1 L173A–APH1A; conditions: decimal comma; for IC50: PSEN1 L173A (TM3)–APH1A cell pool, N = 3 to 4, mean (95% CI)
T6 construct: expressed in transfected cells; host or cells: Psen1/2 double KO/Aph1ABC triple KO MEFs, pools without clonal selection
Experimental: as §1
as §2, with “After puromycin selection (5 μg/ml), GFP-positive cells were selected through FACS sorting. For the alanine mutagenesis experiment, pMSCV PSEN1-APH1A viral vectors were generated by using a long PCR-based QuikChange strategy (Stratagene). Stable cell lines without clonal selection were generated for each mutant as described above. All cell lines were regularly tested for the absence of mycoplasma and used for maximum 20 passages in culture.” left out
as §4

[7] = molecular target: T7, PSEN1 M146A–APH1A γ-secretase complex (Homo sapiens, UniProt P49768, M146A); assay: Aβ40 secretion, MEF cell pool restored with PSEN1 M146A–APH1A; conditions: decimal comma; for IC50: PSEN1 M146A (TM2)–APH1A cell pool, N = 3 to 4, mean (95% CI); for IC50 fold change to WT: PSEN1 M146A–APH1A cell pool
T7 construct: expressed in transfected cells; host or cells: Psen1/2 double KO/Aph1ABC triple KO MEFs, pools without clonal selection
Experimental: as §1, §2, §3

[8] = molecular target: T8, PSEN1 S170A–APH1A γ-secretase complex (Homo sapiens, UniProt P49768, S170A); assay: Aβ40 secretion, MEF cell pool restored with PSEN1 S170A–APH1A; conditions: decimal comma; for IC50: PSEN1 S170A (TM3)–APH1A cell pool, N = 3 to 4, mean (95% CI)
T8 construct: expressed in transfected cells; host or cells: Psen1/2 double KO/Aph1ABC triple KO MEFs, pools without clonal selection
Experimental: as §1
as §2, with “After puromycin selection (5 μg/ml), GFP-positive cells were selected through FACS sorting. For the alanine mutagenesis experiment, pMSCV PSEN1-APH1A viral vectors were generated by using a long PCR-based QuikChange strategy (Stratagene). Stable cell lines without clonal selection were generated for each mutant as described above. All cell lines were regularly tested for the absence of mycoplasma and used for maximum 20 passages in culture.” left out
as §4

[9] = molecular target: T9, PSEN1 L150A–APH1A γ-secretase complex (Homo sapiens, UniProt P49768, L150A); assay: Aβ40 secretion, MEF cell pool restored with PSEN1 L150A–APH1A; conditions: decimal comma; for IC50: PSEN1 L150A (TM2)–APH1A cell pool, N = 3 to 4, mean (95% CI)
T9 construct: expressed in transfected cells; host or cells: Psen1/2 double KO/Aph1ABC triple KO MEFs, pools without clonal selection
Experimental: as §1
as §2, with “After puromycin selection (5 μg/ml), GFP-positive cells were selected through FACS sorting. For the alanine mutagenesis experiment, pMSCV PSEN1-APH1A viral vectors were generated by using a long PCR-based QuikChange strategy (Stratagene). Stable cell lines without clonal selection were generated for each mutant as described above. All cell lines were regularly tested for the absence of mycoplasma and used for maximum 20 passages in culture.” left out
as §4

Row | IC50 [1] | IC50 fold change to WT [1] | IC50 [2] | IC50 fold change to WT [3] | IC50 [3] | IC50 [4] | increase in binding affinity by alanine substitution of L172 [5] | IC50 [6] | IC50 fold change to WT ([6]; PSEN1 L173A–APH1A cell pool) | IC50 [7] | IC50 fold change to WT [7] | IC50 [8] | IC50 [9] | IC50 fold change to WT ([4]; PSEN1 F388A–APH1A cell pool) | IC50 ([5]; PSEN1 L172A (TM3)–APH1A cell pool, N = 3 to 4, mean (95% CI), decimal comma) | IC50 fold change to WT ([8]; PSEN1 S170A–APH1A cell pool) | IC50 fold change to WT ([9]; PSEN1 L150A–APH1A cell pool) | Compound
1 | 0.042 µM | 1,440 fold | 0.0078 µM | 1 fold | 0.029 µM | 0.403 µM | 3.1 fold | 0.077 µM | 2,658 fold | 0.031 µM | 1,076 fold | 0.132 µM | 1.09 µM |  |  |  |  | O=S(=O)(c1ccc(Cl)cc1)N1[C@H]2CC[C@@H]([C@H]1c1ccc(C(F)(F)F)cc1)[C@@H](O)C2 [(+)-9b]
2 | 0.334 µM | 1,980 fold | 0.026 µM | 1 fold | 0.169 µM | 0.277 µM | 47 fold | 0.028 µM |  | 0.234 µM | 1,386 fold | 0.139 µM | 0.879 µM | 1,642 fold | 0.0036 µM | 0,821 fold | 5,207 fold and > 3 fold | C[C@H](NC(=O)Cc1cc(F)cc(F)c1)C(=O)N[C@H](C(=O)OC(C)(C)C)c1ccccc1 [DAPT]
